{"source": "patent US11865125B2", "about": "“APKC inhibitors and methods of treating a neurodegenerative disease or disorder” (UNIVERSITY OF SOUTH FLORIDA, priority 2016, dated 2024)", "key": {"70 kDa PKC-λ/ι": {"target": "T1, 70 kDa PKC-λ/ι (Mus musculus, UniProt Q62074)", "T1 construct": "insulin-sensitive 70 kDa PKC-λ/ι in brains of Het-MλKO mice; from tissue; host or cells: mouse brain homogenate", "T1 sequence (Q62074 1-595)": "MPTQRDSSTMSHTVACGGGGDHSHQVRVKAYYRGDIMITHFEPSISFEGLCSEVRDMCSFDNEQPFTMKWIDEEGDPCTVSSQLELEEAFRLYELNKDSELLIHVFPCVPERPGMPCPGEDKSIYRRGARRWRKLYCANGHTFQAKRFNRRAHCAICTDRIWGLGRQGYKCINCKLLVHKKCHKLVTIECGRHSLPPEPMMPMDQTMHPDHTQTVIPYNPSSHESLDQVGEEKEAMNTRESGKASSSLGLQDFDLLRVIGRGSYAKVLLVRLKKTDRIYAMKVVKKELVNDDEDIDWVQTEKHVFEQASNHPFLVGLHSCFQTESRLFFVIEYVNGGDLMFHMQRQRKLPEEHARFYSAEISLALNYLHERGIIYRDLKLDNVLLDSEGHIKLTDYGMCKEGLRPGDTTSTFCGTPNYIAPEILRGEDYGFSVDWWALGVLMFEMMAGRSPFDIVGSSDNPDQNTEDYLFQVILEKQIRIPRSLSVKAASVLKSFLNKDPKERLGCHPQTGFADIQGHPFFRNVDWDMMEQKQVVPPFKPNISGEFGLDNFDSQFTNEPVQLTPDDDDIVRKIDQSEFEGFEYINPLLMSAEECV", "assay": "brain aPKC (PKC-λ/ι) phosphorylation/activity in mice", "type": "in vivo", "excerpt": "(§1) Mouse Studies. Brain samples were obtained from normal and insulin-resistant mice and monkeys used previously, and includes mice originally used in studies of insulin signaling and resistance in liver: (a) 4-6 month old C57Bl/6 mice used in studies of high-fat-feeding [USF Vivarium] [6]; 4-6 month-old male C57Bl/6 ob/ob and lean ob+ mice (Jackson Labs, Bar Harbor, Maine); and (c) 10-12 month-old C57Bl/6 Het-MλKO mice [USF Vivarium] [8]. […] Where indicated normal mice were given a single SC injection of saline or saline containing 1.5 mg/kg ICAPP to follow time-related alterations in brain signaling factors. Where indicated, mice were treated intraperitoneally (IP) with insulin (1 U/kg body weight) or vehicle 15-min before euthanization by administration of Xylazine/Ketamine, followed by whole body perfusion with phosphate-buffered saline and rapid removal of brain and other tissues.\n(§2) Tissue Preparations. As described, mouse brains were hemisected sagittally, and one-half was frozen in liquid N2, stored at −80° C., and samples thereof were homogenized in buffer containing 0.25M sucrose, 20 mM Tris/HCl (pH, 7.5), 2 mmol/l EGTA, 2 mM EDTA, 1 mM phenlysulfonoylfluoride (PMSF), 20 μg/ml leupeptin, 10 μg/ml aprotinin, 2 mM Na4P2O7, 2 mM Na3VO4, 2 mM NaF, and 1 μM microcystin, and then supplemented with 1% TritonX-100, 0.6% Nonidet and 150 mM NaCl.\n(§3) Western Analyses. As described, Western analyses were conducted with rabbit antisera or mouse monoclonal antibodies (mMab), using: anti-aPKC (Santa Cruz Biotechnologies, Santa Cruz, CA); anti-phospho-threonine-560/555-PKC-ζ/λ/ι (Invitrogen, Carlsbad, CA); anti-p-serine-256-FoxO1 and anti-FoxO1 (Abnova, Walnut, CA); anti-Akt (mMab), anti-phospho-serine-473-Akt, anti-phospho-serine-9-GSK3P anti-GSK313, anti-phospho-serine-253-FoxO3a, anti-FoxO3a, anti-phospho-serine-256-FoxO1, anti-phospho-serine-193-FoxO4; anti-FoxO1, anti-phospho-serine-2448-mTOR, anti-mTOR, anti-β-amyloid (anti-5-10 kDa-Aβ1-40/42) and anti-amyloid precursor protein (anti-120 kDa-APP) (Cell Signaling Technologies, Danvers, MA); and anti-phospho-serine-202-tau, anti-phospho-threonine-231-tau (Gene Tex, Irvine, CA). Samples from experimental groups were compared on the same blots, and routinely checked with loading controls. Note that: insulin-sensitive 70 kDa aPKC is largely PKC-ζ in mouse brain and orthologous PKC-ι (98% aa homology) in monkey and other primate brains; brain PKC-ζ exists largely as a 50 kDa moiety that, lacking a regulatory domain, is constitutively-active and unresponsive to insulin.\n(§4) Where indicated, mice were randomly treated with insulin (1 unit/kg/bw i.p.) 15 min before being euthanized by administration of xylazine/ketamine, followed by whole-body perfusion with PBS and rapid removal of brain and other tissues."}, "phospho-thr-231-tau": {"test_system": "phospho-thr-231-tau", "assay": "phospho-thr-231-tau levels in LA1-5s neuroblastoma cells", "type": "cell-based, human", "settings": "LA1-5s cells", "method": "(§5) Shown here are Mean±SEM (N=4) values relative to the mean initial basal or insulin-stimulated level of indicated immunoreactive protein/peptide. Asterisks: *, P<0.05; **, P<0.01; ***, P<0.001 (ANOVA).\nas §3"}, "Akt [1]": {"test_system": "Akt", "assay": "Akt activity in LA1-5s neuroblastoma cells", "type": "cell-based, human", "settings": "LA1-5s cells, 200 nM insulin", "method": "Relative bar values in panel a are mean±SEM of 6 determinations. Asterisks: *, P<0.05; **, P<0.01; ***, P<0.001 (ANOVA). Values in panel b are means of 2-4 determinations.\nas §5, §3"}, "Akt [2]": {"test_system": "Akt", "assay": "brain Akt phosphorylation/activity in mice", "type": "in vivo, mouse", "excerpt": "as §1, §2, §3, §4"}, "[3]": {"settings": "Het-MλKO mice, s.c. once daily for 8 days (ICAPP 0.4 mg/kg, ATM 60 mg/kg)"}, "[4]": {"settings": "Het-MλKO mice, s.c. once daily for 8 days (ICAPP 0.4 mg/kg, ATM 60 mg/kg), insulin 1 U/kg i.p. 15 min"}, "[5]": {"settings": "normal mice, single s.c. dose of ICAPP 1.5 mg/kg, insulin 1 U/kg i.p. 15 min before killing"}}, "note": "Entries after “also recorded” stand apart in the source; their conditions may differ.", "data": [{"smiles": "NC(=O)c1ncn([C@@H]2C[C@H](COP(=O)(O)O)[C@@H](O)[C@H]2O)c1N", "note": "[ICAPP]", "values": [{"measurement": "resting/basal brain aPKC (PKC-λ/ι) activity", "setting": "70 kDa PKC-λ/ι; [3]", "value": "diminished; also recorded: reductions of resting/basal activities of brain Akt and aPKC, comparable to those seen with ATM treatment"}, {"measurement": "acute insulin activation of brain aPKC (PKC-λ/ι)", "setting": "70 kDa PKC-λ/ι; [4]", "value": "blocked the ability of insulin to activate PKC-λ/ι; also recorded: abrogated"}, {"measurement": "insulin-dependent brain PKC-λ/ι (aPKC) activity", "setting": "70 kDa PKC-λ/ι; [5]", "value": "time-related, well-correlated decreases; also recorded: blocked acute effects of insulin"}, {"measurement": "effect on metformin-induced increase in phospho-thr-231-tau", "setting": "phospho-thr-231-tau", "value": "dose-dependently inhibited"}, {"measurement": "effect on stimulatory effects of insulin on Akt activity", "setting": "Akt [1]", "value": "without altering"}, {"measurement": "resting/basal brain Akt activity", "setting": "Akt [2]; [3]", "value": "diminished; also recorded: reductions of resting/basal activities of brain Akt and aPKC, comparable to those seen with ATM treatment"}, {"measurement": "acute insulin activation of brain Akt", "setting": "Akt [2]; [4]", "value": "restored ability of insulin to acutely activate Akt; also recorded: insulin was fully able to fully activate Akt"}, {"measurement": "insulin-stimulated increases in brain Akt activity", "setting": "Akt [2]; [5]", "value": "without altering; also recorded: without inhibiting insulin effects on Akt"}]}]}
